Assay results reported in patent EP4722207A1, “OXOISOINDOLINYL-SUBSTITUTED TETRAHYDROPYRIMIDINEDIONE DERIVATIVE AND USE THEREOF” (Gluetacs Therapeutics (Shanghai) Co., Ltd., priority 2023, dated 2024).

Assays:
Type in all cases: cell-based
WEE1 = biological target: T1, WEE1 (Homo sapiens, UniProt P30291+Q96SW2); experiment: Western-blot assay, substrate protein degradation in hPBMCs: WEE1; conditions: for substrate protein remaining % WEE1: 24 hours of compound treatment, 50 nM and 500 nM; for WEE1 substrate protein remaining %: compounds at 50 nM and 500 nM, 24 hours
T1 construct: effects of the compounds of the present disclosure on the expression of target proteins in cells; endogenous in cells; host or cells: human PBMCs (hPBMCs)
T1 sequence (P30291 whole entry): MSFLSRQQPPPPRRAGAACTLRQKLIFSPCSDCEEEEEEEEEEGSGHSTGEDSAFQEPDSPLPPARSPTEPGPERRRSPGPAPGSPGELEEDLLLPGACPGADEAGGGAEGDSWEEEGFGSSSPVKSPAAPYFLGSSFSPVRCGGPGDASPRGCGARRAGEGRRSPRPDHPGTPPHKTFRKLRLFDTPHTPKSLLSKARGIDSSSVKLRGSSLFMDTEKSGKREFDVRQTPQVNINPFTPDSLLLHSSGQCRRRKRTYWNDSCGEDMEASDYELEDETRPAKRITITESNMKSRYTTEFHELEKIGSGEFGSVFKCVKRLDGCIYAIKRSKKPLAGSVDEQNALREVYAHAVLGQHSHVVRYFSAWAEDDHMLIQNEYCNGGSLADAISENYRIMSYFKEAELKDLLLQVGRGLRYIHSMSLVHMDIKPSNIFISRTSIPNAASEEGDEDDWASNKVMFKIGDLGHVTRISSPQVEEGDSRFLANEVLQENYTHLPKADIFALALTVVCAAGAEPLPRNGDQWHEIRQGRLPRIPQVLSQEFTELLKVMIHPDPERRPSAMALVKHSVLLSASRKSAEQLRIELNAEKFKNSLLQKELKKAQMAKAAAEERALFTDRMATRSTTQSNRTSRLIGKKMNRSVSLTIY
T1 sequence (Q96SW2 whole entry): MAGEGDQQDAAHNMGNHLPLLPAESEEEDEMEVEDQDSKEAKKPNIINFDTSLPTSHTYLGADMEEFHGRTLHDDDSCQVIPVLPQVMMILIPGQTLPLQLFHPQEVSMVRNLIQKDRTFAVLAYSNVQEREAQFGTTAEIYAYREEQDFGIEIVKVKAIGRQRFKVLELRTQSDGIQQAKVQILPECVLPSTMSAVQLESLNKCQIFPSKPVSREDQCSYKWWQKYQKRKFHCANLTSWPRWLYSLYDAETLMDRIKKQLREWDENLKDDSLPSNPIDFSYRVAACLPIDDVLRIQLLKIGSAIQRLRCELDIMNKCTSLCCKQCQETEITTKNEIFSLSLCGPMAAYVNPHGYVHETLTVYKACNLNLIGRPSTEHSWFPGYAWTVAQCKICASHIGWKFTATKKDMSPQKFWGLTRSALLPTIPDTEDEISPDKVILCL
T1 sequence (Q16531 whole entry partner): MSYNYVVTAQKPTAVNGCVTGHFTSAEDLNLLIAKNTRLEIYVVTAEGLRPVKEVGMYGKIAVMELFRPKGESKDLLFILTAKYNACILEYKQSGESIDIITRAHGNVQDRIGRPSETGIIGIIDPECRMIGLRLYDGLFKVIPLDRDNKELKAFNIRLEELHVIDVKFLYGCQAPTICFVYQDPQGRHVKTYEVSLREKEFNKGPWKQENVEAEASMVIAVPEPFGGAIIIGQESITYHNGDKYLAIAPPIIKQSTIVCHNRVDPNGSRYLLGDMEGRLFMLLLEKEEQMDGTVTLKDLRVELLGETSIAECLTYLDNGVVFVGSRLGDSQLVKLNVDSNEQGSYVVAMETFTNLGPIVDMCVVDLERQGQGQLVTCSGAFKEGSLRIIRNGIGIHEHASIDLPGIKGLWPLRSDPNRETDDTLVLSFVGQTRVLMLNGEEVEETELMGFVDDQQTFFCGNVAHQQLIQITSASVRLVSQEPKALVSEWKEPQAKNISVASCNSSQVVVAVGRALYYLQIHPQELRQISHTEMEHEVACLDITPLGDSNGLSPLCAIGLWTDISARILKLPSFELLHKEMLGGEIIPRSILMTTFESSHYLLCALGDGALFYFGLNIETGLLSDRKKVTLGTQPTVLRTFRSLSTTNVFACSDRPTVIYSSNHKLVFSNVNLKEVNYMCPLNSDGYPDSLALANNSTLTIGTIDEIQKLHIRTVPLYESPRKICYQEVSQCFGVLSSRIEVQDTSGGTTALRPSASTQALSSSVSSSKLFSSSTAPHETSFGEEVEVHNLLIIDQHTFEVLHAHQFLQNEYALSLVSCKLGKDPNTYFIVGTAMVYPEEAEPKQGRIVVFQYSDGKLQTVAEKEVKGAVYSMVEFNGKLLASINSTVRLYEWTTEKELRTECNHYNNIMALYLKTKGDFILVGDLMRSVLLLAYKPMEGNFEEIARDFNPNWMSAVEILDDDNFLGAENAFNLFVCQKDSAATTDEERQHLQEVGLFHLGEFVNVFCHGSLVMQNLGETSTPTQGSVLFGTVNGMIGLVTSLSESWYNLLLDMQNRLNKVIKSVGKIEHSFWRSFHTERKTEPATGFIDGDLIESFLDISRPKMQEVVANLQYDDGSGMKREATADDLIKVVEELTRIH

IKZF1 = biological target: T2, IKZF1 (Homo sapiens, UniProt Q13422+Q96SW2); experiment: Western-blot assay, substrate protein degradation in hPBMCs: IKZF1; conditions: for substrate protein remaining % IKZF1: 24 hours of compound treatment, 50 nM and 500 nM; for IKZF1 substrate protein remaining %: compounds at 50 nM and 500 nM, 24 hours
T2 construct: effects of the compounds of the present disclosure on the expression of target proteins in cells; endogenous in cells; host or cells: human PBMCs (hPBMCs)
T2 sequence (Q13422 whole entry): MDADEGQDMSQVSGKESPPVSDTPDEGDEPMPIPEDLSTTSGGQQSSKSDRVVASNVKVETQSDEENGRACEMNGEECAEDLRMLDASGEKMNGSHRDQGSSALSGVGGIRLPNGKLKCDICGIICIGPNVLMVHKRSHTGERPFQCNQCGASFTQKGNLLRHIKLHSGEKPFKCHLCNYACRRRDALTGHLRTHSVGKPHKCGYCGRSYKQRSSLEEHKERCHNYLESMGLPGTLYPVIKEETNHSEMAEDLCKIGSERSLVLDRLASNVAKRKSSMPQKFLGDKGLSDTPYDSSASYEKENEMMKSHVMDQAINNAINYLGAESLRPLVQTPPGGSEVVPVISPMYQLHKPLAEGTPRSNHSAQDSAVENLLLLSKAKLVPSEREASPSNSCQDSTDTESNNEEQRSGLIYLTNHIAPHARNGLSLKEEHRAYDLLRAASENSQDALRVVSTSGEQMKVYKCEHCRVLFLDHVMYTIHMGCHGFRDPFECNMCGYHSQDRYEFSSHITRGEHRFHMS
T2 sequence (Q96SW2 whole entry): as the sequence (Q96SW2 whole entry) above
T2 sequence (Q16531 whole entry partner): as the sequence (Q16531 whole entry partner) above

IKZF2 = biological target: T3, IKZF2 (Homo sapiens, UniProt Q96SW2+Q9UKS7); experiment: Western-blot assay, substrate protein degradation in hPBMCs: IKZF2; conditions: for substrate protein remaining % IKZF2: 24 hours of compound treatment, 50 nM and 500 nM; for IKZF2 substrate protein remaining %: compounds at 50 nM and 500 nM, 24 hours
T3 construct: effects of the compounds of the present disclosure on the expression of target proteins in cells; endogenous in cells; host or cells: human PBMCs (hPBMCs)
T3 sequence (Q9UKS7 whole entry): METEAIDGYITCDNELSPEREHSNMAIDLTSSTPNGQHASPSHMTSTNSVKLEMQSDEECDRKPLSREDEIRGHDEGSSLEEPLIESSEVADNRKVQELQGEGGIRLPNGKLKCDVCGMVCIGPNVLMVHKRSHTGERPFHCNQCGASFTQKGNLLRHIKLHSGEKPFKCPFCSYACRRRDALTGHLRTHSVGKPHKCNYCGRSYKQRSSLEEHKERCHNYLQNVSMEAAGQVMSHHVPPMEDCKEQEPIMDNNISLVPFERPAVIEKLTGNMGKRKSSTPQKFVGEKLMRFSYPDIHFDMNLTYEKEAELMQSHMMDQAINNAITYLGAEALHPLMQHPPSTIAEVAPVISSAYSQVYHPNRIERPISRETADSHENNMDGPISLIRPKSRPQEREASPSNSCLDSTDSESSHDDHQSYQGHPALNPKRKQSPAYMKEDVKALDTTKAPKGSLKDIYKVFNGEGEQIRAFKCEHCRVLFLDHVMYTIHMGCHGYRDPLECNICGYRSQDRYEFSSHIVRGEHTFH
T3 sequence (Q96SW2 whole entry): as the sequence (Q96SW2 whole entry) above
T3 sequence (Q16531 whole entry partner): as the sequence (Q16531 whole entry partner) above

IKZF3 = biological target: T4, IKZF3 (Homo sapiens, UniProt Q96SW2+Q9UKT9); experiment: Western-blot assay, substrate protein degradation in hPBMCs: IKZF3; conditions: for substrate protein remaining % IKZF3: 24 hours of compound treatment, 50 nM and 500 nM; for IKZF3 substrate protein remaining %: compounds at 50 nM and 500 nM, 24 hours
T4 construct: effects of the compounds of the present disclosure on the expression of target proteins in cells; endogenous in cells; host or cells: human PBMCs (hPBMCs)
T4 sequence (Q9UKT9 whole entry): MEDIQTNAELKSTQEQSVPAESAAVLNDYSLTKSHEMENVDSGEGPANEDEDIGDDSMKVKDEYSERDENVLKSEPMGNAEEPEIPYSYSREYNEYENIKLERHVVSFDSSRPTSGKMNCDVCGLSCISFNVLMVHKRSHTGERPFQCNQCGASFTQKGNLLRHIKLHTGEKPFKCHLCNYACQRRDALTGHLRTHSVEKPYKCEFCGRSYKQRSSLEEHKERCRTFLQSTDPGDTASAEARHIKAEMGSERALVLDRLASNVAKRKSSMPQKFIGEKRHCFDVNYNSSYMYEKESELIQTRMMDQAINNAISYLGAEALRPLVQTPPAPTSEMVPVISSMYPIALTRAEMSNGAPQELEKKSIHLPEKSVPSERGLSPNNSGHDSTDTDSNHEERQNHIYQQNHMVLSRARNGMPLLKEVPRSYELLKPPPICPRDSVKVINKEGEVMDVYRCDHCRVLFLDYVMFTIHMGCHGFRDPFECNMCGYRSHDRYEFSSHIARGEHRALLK
T4 sequence (Q96SW2 whole entry): as the sequence (Q96SW2 whole entry) above
T4 sequence (Q16531 whole entry partner): as the sequence (Q16531 whole entry partner) above

CK1α = biological target: T5, CK1α (Homo sapiens, UniProt P48729+Q96SW2); experiment: Western-blot assay, substrate protein degradation in hPBMCs: CK1α; conditions: for substrate protein remaining % CK1α: 24 hours of compound treatment, 50 nM and 500 nM; for CK1α substrate protein remaining %: compounds at 50 nM and 500 nM, 24 hours
T5 construct: effects of the compounds of the present disclosure on the expression of target proteins in cells; endogenous in cells; host or cells: human PBMCs (hPBMCs)

GSPT1 = biological target: T6, GSPT1 (Homo sapiens, UniProt P15170+Q96SW2); experiment: Western-blot assay, substrate protein degradation in hPBMCs: GSPT1; conditions: for substrate protein remaining % GSPT1: 24 hours of compound treatment, 50 nM and 500 nM; for GSPT1 substrate protein remaining %: compounds at 50 nM and 500 nM, 24 hours
T6 construct: effects of the compounds of the present disclosure on the expression of target proteins in cells; endogenous in cells; host or cells: human PBMCs (hPBMCs)
T6 sequence (P15170 whole entry): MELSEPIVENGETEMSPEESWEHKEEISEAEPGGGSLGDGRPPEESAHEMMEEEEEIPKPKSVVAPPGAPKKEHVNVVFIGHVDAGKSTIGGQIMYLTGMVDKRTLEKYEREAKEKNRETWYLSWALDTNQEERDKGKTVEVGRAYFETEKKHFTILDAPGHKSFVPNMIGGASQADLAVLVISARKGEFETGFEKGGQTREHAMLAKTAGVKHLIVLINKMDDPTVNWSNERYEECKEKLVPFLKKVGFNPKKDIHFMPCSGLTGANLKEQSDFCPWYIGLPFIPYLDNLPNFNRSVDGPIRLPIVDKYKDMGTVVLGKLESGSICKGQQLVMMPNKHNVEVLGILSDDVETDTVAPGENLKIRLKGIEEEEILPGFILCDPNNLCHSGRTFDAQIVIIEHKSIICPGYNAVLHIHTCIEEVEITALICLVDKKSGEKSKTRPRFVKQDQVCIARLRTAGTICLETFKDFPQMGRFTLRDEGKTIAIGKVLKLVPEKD
T6 sequence (Q96SW2 whole entry): as the sequence (Q96SW2 whole entry) above
T6 sequence (Q16531 whole entry partner): as the sequence (Q16531 whole entry partner) above

SMILES | substrate protein remaining % WEE1 (WEE1) | substrate protein remaining % IKZF1 (IKZF1) | substrate protein remaining % IKZF2 (IKZF2) | substrate protein remaining % IKZF3 (IKZF3) | substrate protein remaining % CK1α (CK1α) | substrate protein remaining % GSPT1 (GSPT1) | WEE1 substrate protein remaining % (WEE1) | IKZF1 substrate protein remaining % (IKZF1) | IKZF2 substrate protein remaining % (IKZF2) | IKZF3 substrate protein remaining % (IKZF3) | CK1α substrate protein remaining % (CK1α) | GSPT1 substrate protein remaining % (GSPT1)
O=C1CCN(N2Cc3cc(CN4CCC(c5noc6ccccc56)CC4)ccc3C2=O)C(=O)N1 [GT-07642, 1-(5-((4-(benzo[d]isoxazol-3-yl)piperidin-1-yl)methyl)-1-oxoisoindolin-2-yl)dihydropyrimidine-2,4(1H,3H)-dione] | B (80%< substrate protein remaining %≤ 100%) | B (80%< substrate protein remaining %≤ 100%) | B (80%< substrate protein remaining %≤ 100%) | B (80%< substrate protein remaining %≤ 100%) | B (80%< substrate protein remaining %≤ 100%) | A (0% ≤ substrate protein remaining % ≤ 80%) |  |  |  |  |  | 
O=C1CCN(N2C(=O)c3ccc(CN4C5CC4CN(C(=O)C4=C(c6ccc(F)cc6)CCCC4)C5)cc3C2=O)C(=O)N1 [GT-07377, 2-(2,4-dioxotetrahydropyrimidin-1(2H)-yl)-5-((3-(4'-fluoro-3,4,5,6-tetrahydro-[1,1'-biphenyl]-2-carbonyl)-3,6-diazabicyclo[3.1.1]heptan-6-yl)methyl)isoindoline-1,3-dione] | A (0% ≤ substrate protein remaining % ≤ 80%) | B (80%< substrate protein remaining %≤ 100%) | A (0% ≤ substrate protein remaining % ≤ 80%) | B (80%< substrate protein remaining %≤ 100%) | A (0% ≤ substrate protein remaining % ≤ 80%) | A (0% ≤ substrate protein remaining % ≤ 80%) |  |  |  |  |  | 
O=C1CCN(N2C(=O)c3ccc(CN4CCN(c5ccc(Br)cc5)CC4)cc3C2=O)C(=O)N1 [GT-06784, 5-((4-(4-bromophenyl)piperazin-1-yl)methyl)-2-(2,4-dioxotetrahydropyrimidin-1(2H)-yl)isoindoline-1,3-dione] |  |  |  |  |  |  | B ("B" is defined as 80%< substrate protein remaining %≤ 100%) | B ("B" is defined as 80%< substrate protein remaining %≤ 100%) | B ("B" is defined as 80%< substrate protein remaining %≤ 100%) | B ("B" is defined as 80%< substrate protein remaining %≤ 100%) | A ("A" is defined as 0% ≤ substrate protein remaining % ≤ 80%) | B ("B" is defined as 80%< substrate protein remaining %≤ 100%)
CC1(C)CCC(CN2CC3CCC2CN3Cc2ccc3c(c2)CN(N2CCC(=O)NC2=O)C3=O)=C(c2ccc(Cl)cc2)C1 (stereo not drawn) [GT-07331, 1-(5-((5-((4'-chloro-5,5-dimethyl-3,4,5,6-tetrahydro-[1,1'-biphenyl]-2-yl)methyl)-2,5-diazabicyclo[2.2.2]octan-2-yl)methyl)-1-oxoisoindolin-2-yl)dihydropyrimidine-2,4(1H,3H)-dione] | A (0% ≤ substrate protein remaining % ≤ 80%) | A (0% ≤ substrate protein remaining % ≤ 80%) | B (80%< substrate protein remaining %≤ 100%) | A (0% ≤ substrate protein remaining % ≤ 80%) | A (0% ≤ substrate protein remaining % ≤ 80%) | A (0% ≤ substrate protein remaining % ≤ 80%) |  |  |  |  |  | 
O=C1CCN(N2Cc3cc(CN4CCN(Cc5ccccc5-c5ccc(Cl)cc5)CC4)ccc3C2=O)C(=O)N1 [GT-06433, 1-(5-((4-((4'-chloro-[1,1'-biphenyl]-2-yl)methyl)piperazin-1-yl)methyl)-1-oxoisoindolin-2-yl)dihydropyrimidine-2,4(1H,3H)-dione] |  |  |  |  |  |  | A ("A" is defined as 0% ≤ substrate protein remaining % ≤ 80%) | A ("A" is defined as 0% ≤ substrate protein remaining % ≤ 80%) | A ("A" is defined as 0% ≤ substrate protein remaining % ≤ 80%) | A ("A" is defined as 0% ≤ substrate protein remaining % ≤ 80%) | B ("B" is defined as 80%< substrate protein remaining %≤ 100%) | A ("A" is defined as 0% ≤ substrate protein remaining % ≤ 80%)
